{"source": "patent US6887903B1", "about": "“N-(2-aryl-propionyl)-sulfonamides and pharmaceutical preparations containing them” (Dompe S.p.A., priority 1998, dated 2005)", "key": {"CO enzymes": {"system": "CO enzymes", "settings": "ketoprofen enantiomers; cited from earlier work"}, "[1]": {"system": "PMN human leukocytes stimulated by interleukin 8", "assay": "Chemotaxis of human PMN induced by IL-8", "type": "cell-based", "settings": "IL-8 10 ng/mL; concentration range from 10^−6 to 10^−11 M; mean ±S.D. of 3 independent tests", "protocol": "(§1) The compounds of the invention were studied using PMN cells obtained by sedimentation of heparinized blood from healthy volunteers on dextran; the mononuclear cells were removed by means of Ficoll/Hypaque whereas erythrocytes were removed by treatment with hypotonic solutions. Cell viability of PMN leukocytes was calculated by exclusion with Turk and Trypan Blue, while the percentage of PM-nucleates on the cytocentrifugate was evaluated upon staining with Diff Quinck (W. J. Ming et al., J. Immunol., 138, 1469, 1987).\n(§2) In each of the “in vitro” tests subsequently described, PMN were incubated with the compounds of the invention for 10 minutes at a temperature of 37° C.\n(§3) In the chemotaxis tests and in those for evaluating cytosol levels of the Ca^2+ ion, human recombinant IL-8 (Pepro Tech.) was used as stimulating agent: the freeze-dried protein was dissolved in HBSS (Hank's balanced salts solution) at a concentration of 100 ng/mL and was used after dilution in HBSS to concentrations of 10 ng/mL in the chemotaxis tests and of 25-50 ng/mL in the evaluation of [Ca^2+]i cell modifications.\nIn the chemotaxis test (according to W. Falket et al., J. Immunol. Methods, 33, 239, 1980) PVP filters of […] porosity and a plexigas microcamera suitable to perform 48 replications were used. […]"}, "[2]": {"system": "PMN human leukocytes stimulated by C5a", "assay": "Chemotaxis of human PMN induced by C5a", "type": "cell-based", "settings": "C5a 10^−9 M; DF 1681 from 10^−6 to 10^−7 M", "protocol": "as §1, §2\n(§4) In the chemotaxis test (according to W. Falket et al., J. Immunol. Methods, 33, 239, 1980) PVP filters of […] porosity and a plexigas microcamera suitable to perform 48 replications were used. The microcamera consists of a plexiglas piece containing 48 wells, each of 25 μL capacity, and is equipped with a cover, in its turn containing 48 pores arranged so that, once the lid has been placed on and screwed to the underneath part, 50 μL capacity top compartments are formed in the microcamera.\n(§5) Equal concentrations of the tested compounds were placed in the top wells containing the PMN suspension and in the lower ones, which contained the carrier optionally added with IL-8 (or a different stimulating agent)."}, "[3]": {"system": "PMN human leukocytes stimulated by f-MLP", "assay": "Chemotaxis of human PMN induced by f-MLP", "type": "cell-based", "settings": "f-MLP 10^−8 M; DF 1681 from 10^−6 to 10^−7 M", "protocol": "as §1, §2, §4, §5"}, "[4]": {"system": "human PMNs leukocytes stimulated by IL-8", "assay": "Cytosol [Ca2+]i variations in human PMN stimulated by IL-8 (Fura-2AM)", "type": "cell-based", "settings": "for [Ca2+]i response, % compared with basal values (basal normalized at 100): compound 10^−6 M + IL-8 50 ng/mL, mean of responsive cells with SEM, PMN from 3 donors; for percentage of non-responsive cells: pretreated with compound 10^−6 M, IL-8 50 ng/mL (30% with only IL-8)", "protocol": "as §1, §2, §3\nCytosol variations of [Ca^2+]i were determined according to the experimental model described by C. Bizzarri et al., (Blood, 86, 2388, 1995), using slides containing adhered PMN added with 1 μM Fura-2AM to evaluate [Ca^2+]i variations in actual time. In their turn, PMN cytocentrifugates were resuspended in RPMI 1640 medium with 5% FCS (bovine foetal serum) at a concentration of 3×10^6/mL and then inoculated (plated) on round glass slides of 25 mm diameter which were placed in incubator for 30 min. at 37° C. After three subsequent washings with BSS (Balanced salts solution) to remove the non adherent cells, all of the adherent cells were further incubated for a maximum of 4 hours before adding Fura-2AM.\nBy way of example, results obtained with R(−)-N-2-[3-(benzoylphenyl)-propionyl])-methanesulfonamide (DF 1661) and R(−)-N-2-[(4-Isobutylphenyl)-propionyl]-methanesulfonamide (DF 1681) using human PMNs leukocytes from 3 different donors are reported in the subsequent table. These leukocytes were considered responsive to IL-8 (50 ng/mL) when [Ca^2+]i was higher than the basal value by 34% (normalized at 100) in response to the stimulus.\nThe responses, expressed as % compared with [Ca^2+]i basal values, are the mean of the values of the responsive cells and include standard error (SEM); n is the number of replications. During these tests, the percentage of non-responsive cells was different in the different groups: 30% in the group treated with only IL-8, 40% in the group pretreated with DF 1661 and 70% in the group pretreated with DF 1681."}, "[5]": {"system": "human neutrophils stimulated by IL-8", "settings": "IL-8 1 nM; read-out: IC50 of blockage of chemotaxis stimulated by IL-8; cited from earlier work"}, "[6]": {"system": "human neutrophils stimulated by GROα", "settings": "GROα 10 nM; read-out: IC50 of blockage of chemotaxis stimulated by GROα; cited from earlier work"}, "[7]": {"system": "human neutrophils stimulated by complement C5a", "settings": "concentration range of 50 to 330 nM; cited from earlier work"}}}
{"smiles": "C[C@@H](C(=O)O)c1cccc(C(=O)c2ccccc2)c1", "note": "(single isomer, unassigned) [enantiomer (R)]", "values": [{"measurement": "lower potency of enantiomer (R) compared with enantiomer (S) as CO enzymes inhibitor", "setting": "CO enzymes", "value": "10-100 times"}]}
{"smiles": "CC(C)Cc1ccc([C@@H](C)C(=O)NS(C)(=O)=O)cc1", "note": "[DF 1681, R(−)-N-[2-(4-Isobutylphenyl)propionyl]-methanesulfonamide]", "values": [{"measurement": "inhibition of chemotaxis induced by IL-8 (number of migrated PMN, FIG. 1)", "setting": "[1]", "value": "dose-dependently inhibits chemotaxis induced by IL-8"}, {"measurement": "inhibition of chemotaxis induced by C5a (FIG. 2)", "setting": "[2]", "value": "selectivity inhibit IL-8-induced chemotaxis instead of chemotaxis induced by C5a"}, {"measurement": "inhibition of chemotaxis induced by f-MLP (FIG. 2)", "setting": "[3]", "value": "selectivity inhibit IL-8-induced chemotaxis instead of chemotaxis induced by C5a (10^−9 M) or by f-MLP"}, {"measurement": "[Ca2+]i response, % compared with basal values (basal normalized at 100)", "setting": "[4]", "value": "159 + 16 (n = 10) %"}, {"measurement": "percentage of non-responsive cells", "setting": "[4]", "value": 70, "unit": "%"}]}
{"smiles": "O=C(Nc1ccc([N+](=O)[O-])cc1O)Nc1ccccc1Br", "note": "[N-(2-hydroxy-4-nitrophenyl)-N′-(2-bromo-phenyl)urea]", "values": [{"measurement": "IC50", "setting": "[5]", "value": "20 to 60", "unit": "nM"}, {"measurement": "IC50", "setting": "[6]", "value": "20 to 60", "unit": "nM"}, {"measurement": "blockage of C5a-stimulated chemotaxis", "setting": "[7]", "value": "but not that of complement C5a-stimulated chemotaxis"}]}
{"smiles": "C[C@@H](C(=O)NS(C)(=O)=O)c1cccc(C(=O)c2ccccc2)c1", "note": "[DF 1661]", "values": [{"measurement": "[Ca2+]i response, % compared with basal values (basal normalized at 100)", "setting": "[4]", "value": "184 + 16 (n = 10) %"}, {"measurement": "percentage of non-responsive cells", "setting": "[4]", "value": 40, "unit": "%"}]}
